According to patent publication US20080026079A1 (priority 2006, published 2008):
Values joined by “and” are separate entries in the source; they are usually repeats but may differ in a detail not shown here. Identical values can stand only once. “Also recorded” adds a separate entry of the source.

Legend:
[1] = tested on: canine intestinal inflammation; assay: Canine inflammatory bowel disease activity index (CIBDAI) around Adriamycin dosing; format: in vivo, dog; design: key to CIBDAI C. Vomiting: 0 = none; 1 = mild (1 episode/week); 2 = moderate (2-3 episodes/week); 3 = severe (>3 episodes/week); key to CIBDAI A. Attitude/activity / CIBDAI B. Appetite / CIBDAI E. Stool frequency: 0 = normal; 1 = slightly decreased; 2 = moderately decreased; 3 = severely decreased
Description: (§1) The criteria used for the scoring in the table is found at the bottom of the table. Dogs in the study were given a “palliative” Adriamycin dosage (30 mg/m2, IV every 14 days). Symptoms related to intestinal inflammation are expected in fewer than 10% of treated dogs.

[2] = tested on: dogs with malignant tumors; settings: cited from earlier work
[3] = tested on: canine intestinal inflammation; assay: Canine inflammatory bowel disease activity index (CIBDAI) around Adriamycin dosing; format: in vivo; design: key: 0 = normal; 1 = slightly soft faeces or faecal blood, mucus or both; 2 = very soft faeces; 3 = watery diarrhea; settings: one line per dog
Description: as §1

[4] = tested on: hepatic demethylation capacity; settings: dog, in vivo
Description: A ^13C-aminopyrine demethylation blood test was performed in 16 dogs before and after undergoing chemotherapy with doxorubicin for malignant neoplasia. A baseline blood sample of 1 ml was taken, followed by intravenous injection of 2 mg/kg ^13C-aminopyrine and collection of another 1 ml blood sample at 45 minutes after ^13C-aminopyrine administration. Blood samples were immediately placed into vacutainer tubes containing 2 ml of 6M hydrochloric acid and the percent dose of the ^13C administered as ^13C-aminopyrine was determined based on fractional mass spectrometry. […] A p-value <0.05 was considered statistically significant.

fecal α-1PI = assay: Fecal alpha(1)-proteinase inhibitor ELISA following Adriamycin; format: in vivo, dog;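 for m α-1PI - pd. 1: unit µg per g of feces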;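 for m α-1PI - pd. 2: unit µg per g of feces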
Description: Fecal alpha(1)-proteinase inhibitor (α-1PI) clearance is a reliable, noninvasive marker for protein-losing enteropathy in animals and canines. Furthermore, the canine gut is a good model for the human gut, so results of testing on dogs can be considered relevant to humans. In this example, a number of dogs were tested. Fecal samples were collected daily for 3 days following each Adriamycin administration. An ELISA was used to measure α-1PI concentrations in fecal extracts.
Fecal samples were available for analysis following both chemotherapy treatments from 13 dogs.

[5] = tested on: canine intestinal inflammation; assay: Canine inflammatory bowel disease activity index (CIBDAI) around Adriamycin dosing; format: in vivo; design: key: 0 = normal; 1 = slightly decreased; 2 = moderately decreased; 3 = severely decreased; settings: one line per dog
Description: as §1

[6] = tested on: chemotherapy-induced diarrhea; settings: 41 5-FU-treated patients; standard-dose loperamide; cited from earlier work
[7] = tested on: irinotecan-induced diarrhea; settings: irinotecan weekly 125 mg/m^2; strict adherence to high-dose loperamide; fell from 56; cited from earlier work
[8] = tested on: diarrhea following chemotherapy in dogs; settings: dog, in vivo
Description: 32 dogs presented with diarrhea following the administration of a chemotherapy agent such as doxorubicin, cytoxan, vincristine, lomustine, and others for a minimum period of 48 hours. CASAD in 500 mg tables was given orally to the cancer-treated dogs four times a day (q.i.d.). Other pharmaceutical agents or medications, as shown below, were also administered to certain dogs according to Best Clinical Practices, using usual, customary dosing. To the extent permitted by scheduling, CASAD and the other medication were given concurrently.

[9] = tested on: pregnant Sprague-Dawley rats; assay: Dietary clay toxicity and trace metal bioavailability in pregnant rats; settings: rat, in vivo
Description: In animal studies with calcium montmorillonite clay, no adverse effects from clay treatment, at levels up to 2.0% (w/w) in the diet, have been reported. In recent studies in rodents, calcium montmorillonite clay were evaluated for potential toxicity and trace metal bioavailability in pregnant Sprague-Dawley rats throughout the period of gestation following high level exposure in the diet (2.0% w/w). Clays were supplemented in the balanced diet of Sprague-Dawley rats during pregnancy at a level of 2.0% (w/w). Evaluations of toxicity were performed on gestation day 16 and included maternal body weights, maternal feed intakes, litter weights, in addition to embryonic resorptions. Liver and, kidneys, tibia, brain, uterus, pooled placental, and pooled embryonic mass were collected and weighed. Tissue were lyophilized and neutron activation analysis (NAA) was then performed. Elements considered by NAA included: Al, Br, Ca, Ce, Co, Cr, Cs, Cu, Dy, Eu, Fe, Hf, K, La, Lu, Mg, Mn, Na, Nd, Ni, Rb, S, Sb, Sc, Se, Sm, Sr, Ta, Th, Te, Th, Ti, Tl, U, V, Yb, Zn, and Zr. Inductively coupled plasma-mass spectroscopy further confined that Al was below detection limits (0.5 ppm) in the brain, indicating no significant bioavailability of this metal from clay interactions in the GI tract. […]

Cc1ncc([N+](=O)[O-])n1CCO [Flagyl, metronidazole]
time to resolution of diarrhea ([1]; Dog 2, diarrhea started Day 21 after Adria 2): with Flagyl, resolved in 2 days

COc1cccc2c1C(=O)c1c(O)c3c(c(O)c1C2=O)C[C@@](O)(C(=O)CO)C[C@@H]3O[C@H]1C[C@H](N)[C@H](O)[C@H](C)O1 [doxorubicin]
dogs that died as a direct result of doxorubicin-induced toxicosis ([2]; 185 dogs, 30 mg/m^2 iv once or twice at 21-day interval): 7 dogs | likelihood of toxicosis after second dose in dogs with signs after first dose ([2]; dog, in vivo): 17.2 times | CIBDAI A. Attitude/activity ([1]; Post Adria 1, 30 mg/m2 IV every 14 days, one line per dog): A.0 (11×) and A.1 (2×) | CIBDAI B. Appetite ([1]; Post Adria 1, one line per dog): B.0 (11×) and B.2 (2×) | CIBDAI C. Vomiting ([1]; Post Adria 1, one line per dog): C.1 (1 = mild (1 episode/week)) (2×) and C.0 (9×) and C.2 (2 = moderate (2-3 episodes/week)) (2×) | CIBDAI E. Stool frequency ([1]; Post Adria 1, one line per dog): E.0 (11×) and E.2 (2 = moderately increased (4-5 times/day)) and E.1 (1 = slightly increased (2-3 times/day)) | CIBDAI A. Attitude/activity ([1]; Post Adria 2, one line per dog): A.0 (10×) and A.3 and A.2 and A.1 | CIBDAI B. Appetite ([1]; Post Adria 2, one line per dog): B.0 (9×) and B.2 (2×) and B.3 and B.1 | CIBDAI C. Vomiting ([1]; Post Adria 2, one line per dog): C.0 (11×) and C.1 (1 = mild (1 episode/week)) (2×) | CIBDAI E. Stool frequency ([1]; Post Adria 2, one line per dog): E.2 (2 = moderately increased (4-5 times/day)) (2×) and E.0 (11×) | CIBDAI A. Attitude/activity ([1]; Pre Adria 2, one line per dog): A.0 | CIBDAI B. Appetite ([1]; Pre Adria 2, one line per dog): B.0 (12×) and B.1 | CIBDAI C. Vomiting ([1]; Pre Adria 2, one line per dog): C.0 | CIBDAI E. Stool frequency ([1]; Pre Adria 2, one line per dog): E.0 | CIBDAI F. Weight loss ([1]; Pre Adria 2, one line per dog): F.0 | observations noted per dog after Adriamycin ([1]; notes under the dog's scores, listed as Adria): Day 21 - Lethargic for 1 week after; also recorded: Day 21 - Owner reported dumpty for 3 days post Adria #2; also recorded: Day 21 - Diarrhea started, treated; also recorded: Patient was euthanized 5 days after initial; also recorded: Day 7 - Diarrhea,; also recorded: Day 21 - Diarrhea for 3 days,; also recorded: Adria #2 delayed due to vomiting, diarrhea, | CIBDAI D. Stool consistency ([3]; Post Adria 1): D.3 and D.1 and D.2 | CIBDAI D. Stool consistency ([3]; Post Adria 2): D.2 and D.3 | CIBDAI D. Stool consistency ([3]; Pre Adria 2): D.1 | mean ±SD clearance at 45 minutes after 13C-aminopyrine administration [4]: 0.09562±0.0074 | fecal α-1PI concentrations, comparison of the two treatments (fecal α-1PI; 13 dogs): not significantly different | m α-1PI - pd. 1 (fecal α-1PI; one line per dog, fecal samples 3 days following first Adriamycin administration): 0 micro g/g of feces (5×) and 9.38 micro g/g of feces and 1.38 micro g/g of feces and 2.83 micro g/g of feces and 0.7 micro g/g of feces and 4.2 micro g/g of feces and 6.85 micro g/g of feces and 0.47 micro g/g of feces and 13.23 micro g/g of feces | m α-1PI - pd. 2 (fecal α-1PI; one line per dog, fecal samples 3 days following second Adriamycin administration): 21.29 micro g/g of feces and 0 micro g/g of feces (3×) and 3.76 micro g/g of feces and 1.34 micro g/g of feces and 1.7 micro g/g of feces and 0.85 micro g/g of feces and 0.53 micro g/g of feces and 14.26 micro g/g of feces and 4.57 micro g/g of feces and 1.83 micro g/g of feces and 1.3 micro g/g of feces | CIBDAI D. Stool consistency ([5]; Post Adria 1): D.0 | CIBDAI D. Stool consistency ([5]; Post Adria 2): D.0 | CIBDAI D. Stool consistency ([5]; Pre Adria 2): D.0

CN(C)C(=O)C(CCN1CCC(O)(c2ccc(Cl)cc2)CC1)(c1ccccc1)c1ccccc1 [loperamide]
resolution of diarrhea by day three [6]: 15% | prevalence of grade ¾ diarrhea [7]: 9%

C[C@@H](O)[C@@H]1NC(=O)[C@H](CCCCN)NC(=O)[C@@H](Cc2c[nH]c3ccccc23)NC(=O)[C@H](Cc2ccccc2)NC(=O)[C@@H](NC(=O)[C@H](N)Cc2ccccc2)CSSC[C@@H](C(=O)N[C@H](CO)[C@@H](C)O)NC1=O [octreotide]
resolution of diarrhea by day three [6]: 90%

calcium aluminosilicate [CASAD]
1 = interaction 0 = noninteraction [8]: 0 | dogs with interaction [8]: 0 | negative interactions (anorexia, vomiting, nausea, lethargy, anaphylaxis) with additional drugs [8]: No negative interactions

calcium montmorillonite clay
Al in the brain (ICP-MS) [9]: < 0.5 ppm | brain Rb [9]: decreased brain Rb
